Data on 20 molecules can be found in patent publication US10604535B2, “Compounds, compositions and methods” (Denali Therapeutics Inc., priority 2016, dated 2020).

The IC50 is the concentration that gives 50% inhibition.

Where two headings read alike, the source gives them in different places.

Assay [1] relates to FADD-deficient Jurkat cells. Briefly: Cellular necroptosis assay (human TNFα-induced necrosis, CellTiter-Glo). It counts as cell-based. The following applies: Homo sapiens, Jurkat, 48 h, read-out: Cell IC50.
In the next assay the target is GST-hRIPK1 (8-327) (Homo sapiens (Human), UniProt Q13546). The experiment in a line: Fluorescent Polarization Binding (FP Binding) assay.
Sequence of GST-hRIPK1 (8-327) (Q13546 8-327): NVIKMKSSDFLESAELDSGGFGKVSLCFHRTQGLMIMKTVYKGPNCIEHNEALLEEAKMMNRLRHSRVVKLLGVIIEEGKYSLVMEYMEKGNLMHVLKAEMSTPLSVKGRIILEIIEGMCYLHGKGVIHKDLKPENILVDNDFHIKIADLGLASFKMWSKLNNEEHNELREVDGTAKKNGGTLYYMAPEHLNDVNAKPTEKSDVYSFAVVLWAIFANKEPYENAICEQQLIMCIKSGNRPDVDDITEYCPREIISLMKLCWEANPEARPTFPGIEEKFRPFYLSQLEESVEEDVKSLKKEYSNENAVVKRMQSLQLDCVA

On to `CN1C(=O)[C@@H](NC(=O)c2nnc(Cc3ccccc3)[nH]2)CCc2nn(C)cc21` [Example 105A, (S)-5-benzyl-N-(2,4-dimethyl-5-oxo-2,4,5,6,7,8-hexahydropyrazolo[4,3-b]azepin-6-yl)-4H-1,2,4-triazole-3-carboxamide], for which the IC50 (in assay [1] (TNFα 10 ng/mL); at GST-hRIPK1 (8-327)) was 0.1 to 1000 nM each time.

In the case of `CN1C(=O)[C@@H](NC(=O)c2nn(Cc3ccc(F)cc3)cc2F)[C@H]2C[C@H]2c2cccnc21` [Example 156B, 4-fluoro-1-(4-fluorobenzyl)-N-((1aS,2S,8bR)-4-methyl-3-oxo-1,1a,2,3,4,8b-hexahydrocyclopropa[d]pyrido[2,3-b]azepin-2-yl)-1H-pyrazole-3-carboxamide], the IC50 (in assay [1] (TNFα 10 ng/mL); at GST-hRIPK1 (8-327)) was 0.1 to 1000 nM in each case.

Turning to `C[C@H]1Oc2cccnc2N(C)C(=O)[C@H]1NC(=O)c1cc(Cc2ccccc2)on1` [Example 112, 5-benzyl-N-((2R,3S)-2,5-dimethyl-4-oxo-2,3,4,5-tetrahydropyrido[3,2-b][1,4]oxazepin-3-yl)isoxazole-3-carboxamide], the IC50 (in assay [1] (TNFα 10 ng/mL); at GST-hRIPK1 (8-327)) was 0.1 to 1000 nM each time.

For `CN1C(=O)[C@@H](NC(=O)c2nn(Cc3ccccc3F)cc2F)COc2cccnc21` [Example 133, (S)-4-Fluoro-1-(2-fluorobenzyl)-N-(5-methyl-4-oxo-2,3,4,5-tetrahydropyrido[3,2-b][1,4]oxazepin-3-yl)-1H-pyrazole-3-carboxamide], the IC50 (in assay [1] (TNFα 10 ng/mL); at GST-hRIPK1 (8-327)) was 0.1 to 1000 nM in each case.

Turning to `C[C@H]1Oc2cccnc2N(C)C(=O)[C@H]1NC(=O)c1cc(Oc2ccccc2F)cnn1` [Example 139, N-((2R,3S)-2,5-dimethyl-4-oxo-2,3,4,5-tetrahydropyrido[3,2-b][1,4]oxazepin-3-yl)-5-(2-fluorophenoxy)pyridazine-3-carboxamide], the IC50 (in assay [1] (TNFα 10 ng/mL); at GST-hRIPK1 (8-327)) was 0.1 to 1000 nM in each case.

With `CN1C(=O)[C@@H](NC(=O)c2ncc(Cc3cccc(C#N)c3)s2)COc2ccccc21` [Example 164, (S)-5-(3-cyanobenzyl)-N-(5-methyl-4-oxo-2,3,4,5-tetrahydrobenzo[b][1,4]oxazepin-3-yl)thiazole-2-carboxamide], the IC50 (in assay [1] (TNFα 10 ng/mL); at GST-hRIPK1 (8-327)) was 0.1 to 1000 nM each time.

For the molecule `CN1C(=O)[C@@H](NC(=O)c2ncc(C3(c4ccccc4)CC3)[nH]2)COc2cccnc21` [Example 99, (S)—N-(5-methyl-4-oxo-2,3,4,5-tetrahydropyrido[3,2-b][1,4]oxazepin-3-yl)-5-(1-phenylcyclopropyl)-1H-imidazole-2-carboxamide], the figures for the IC50 (in assay [1] (TNFα 10 ng/mL); on GST-hRIPK1 (8-327)) were 0.1 to 1000 nM and 1000 to 10000 nM, respectively.

As to `CN1C(=O)[C@@H](NC(=O)c2nn(Cc3ccccn3)cc2F)COc2ccccc21` [Example 55, (S)-4-fluoro-N-(5-methyl-4-oxo-2,3,4,5-tetrahydrobenzo[b][1,4]oxazepin-3-yl)-1-(pyridin-2-ylmethyl)-1H-pyrazole-3-carboxamide], the IC50 (in assay [1] (TNFα 10 ng/mL); at GST-hRIPK1 (8-327)) was 0.1 to 1000 nM in each case.

In the case of `CN1C(=O)[C@@H](NC(=O)c2nn(Cc3cc(F)cc(C#N)c3)cc2F)COc2cccnc21` [Example 130, (S)-1-(3-Cyano-5-fluorobenzyl)-4-fluoro-N-(5-methyl-4-oxo-2,3,4,5-tetrahydropyrido[3,2-b][1,4]oxazepin-3-yl)-1H-pyrazole-3-carboxamide], the IC50 (in assay [1] (TNFα 10 ng/mL); on GST-hRIPK1 (8-327)) was 0.1 to 1000 nM in each case.

For the molecule `CN1C(=O)[C@@H](NC(=O)c2nnc(Cc3ccccc3)[nH]2)CC2(CC2)c2cccnc21` [Example 125B, (S)-5-benzyl-N-(9′-methyl-8′-oxo-6′,7′,8′,9′-tetrahydrospiro[cyclopropane-1,5′-pyrido[2,3-b]azepin]-7′-yl)-4H-1,2,4-triazole-3-carboxamide], the IC50 (in assay [1] (TNFα 10 ng/mL); at GST-hRIPK1 (8-327)) was 0.1 to 1000 nM throughout.

Turning to `CN1C(=O)[C@@H](NC(=O)c2nn(Cc3ccccc3)cc2F)CCc2c1cnn2C` [Example 114A, (S)-1-benzyl-N-(1,4-dimethyl-5-oxo-1,4,5,6,7,8-hexahydropyrazolo[4,3-b]azepin-6-yl)-4-fluoro-1H-pyrazole-3-carboxamide], the IC50 (in assay [1] (TNFα 10 ng/mL); on GST-hRIPK1 (8-327)) was 0.1 to 1000 nM in each case.

For the molecule `CN1C(=O)[C@@H](NC(=O)c2cn(Cc3ccccc3)nn2)COc2cccnc21` [Example 201, (S)-1-benzyl-N-(5-methyl-4-oxo-2,3,4,5-tetrahydropyrido[3,2-b][1,4]oxazepin-3-yl)-1H-1,2,3-triazole-4-carboxamide], the IC50 (in assay [1] (TNFα 10 ng/mL); on GST-hRIPK1 (8-327)) was 0.1 to 1000 nM in each case.

Turning to `Cc1c(Cl)c(C(=O)N[C@H]2COc3ccccc3N(C)C2=O)nn1Cc1ccccc1` [Example 4, (S)-1-benzyl-4-chloro-5-methyl-N-(5-methyl-4-oxo-2,3,4,5-tetrahydrobenzo[b][1,4]oxazepin-3-yl)-1H-pyrazole-3-carboxamide], the IC50 (in assay [1] (TNFα 10 ng/mL); on GST-hRIPK1 (8-327)) was 0.1 to 1000 nM each time.

Take `CN1C(=O)[C@@H](NC(=O)c2nnc(C3(c4ccccc4)CC3)s2)COc2ccccc21` [Example 58, (S)—N-(5-methyl-4-oxo-2,3,4,5-tetrahydrobenzo[b][1,4]oxazepin-3-yl)-5-(1-phenylcyclopropyl)-1,3,4-thiadiazole-2-carboxamide]: the IC50 (in assay [1] (TNFα 10 ng/mL); on GST-hRIPK1 (8-327)) was 0.1 to 1000 nM each time.

For `CN1C(=O)[C@@H](NC(=O)c2cc(C#N)n(Cc3ccccc3)n2)COc2cccnc21` [Example 158, (S)-1-benzyl-5-cyano-N-(5-methyl-4-oxo-2,3,4,5-tetrahydropyrido[3,2-b][1,4]oxazepin-3-yl)-1H-pyrazole-3-carboxamide], the IC50 (in assay [1]; on GST-hRIPK1 (8-327)) was 0.1 to 1000 nM throughout.

On to `CN1C(=O)[C@@H](NC(=O)c2cc(Cc3ccccc3)on2)C2CC2c2ccccc21` (stereo partly drawn) [Example 7, 5-benzyl-N-((2S)-4-methyl-3-oxo-1,1a,2,3,4,8b-hexahydrobenzo[b]cyclopropa[d]azepin-2-yl)isoxazole-3-carboxamide], for which the IC50 (in assay [1] (TNFα 10 ng/mL); on GST-hRIPK1 (8-327)) was 0.1 to 1000 nM in each case.

`O=C(N[C@H]1CCc2ccccc2-n2ccnc21)c1cc(Cc2ccccc2)on1` [Example 30, (S)-5-benzyl-N-(5,6-dihydro-4H-benzo[f]imidazo[1,2-a]azepin-4-yl)isoxazole-3-carboxamide]: the IC50 (in assay [1] (TNFα 10 ng/mL); at GST-hRIPK1 (8-327)) was 0.1 to 1000 nM each time.

On to `Cc1nc2c(s1)CC[C@H](NC(=O)c1nnc(Cc3ccccc3)o1)C(=O)N2C` [Example 200, (S)-5-benzyl-N-(2,4-dimethyl-5-oxo-5,6,7,8-tetrahydro-4H-thiazolo[4,5-b]azepin-6-yl)-1,3,4-oxadiazole-2-carboxamide], for which the IC50 (in assay [1] (TNFα 10 ng/mL); at GST-hRIPK1 (8-327)) was 0.1 to 1000 nM throughout.

On to `C[C@H]1Oc2cccnc2N(C)C(=O)[C@H]1NC(=O)c1cn(Cc2ccccc2)nn1` [Example 203, 1-benzyl-N-((2R,3S)-2,5-dimethyl-4-oxo-2,3,4,5-tetrahydropyrido[3,2-b][1,4]oxazepin-3-yl)-1H-1,2,3-triazole-4-carboxamide], for which the IC50 (in assay [1] (TNFα 10 ng/mL); on GST-hRIPK1 (8-327)) was 0.1 to 1000 nM each time.

`C[C@H]1Oc2cccnc2N(C)C(=O)[C@H]1NC(=O)c1nnc(C2(c3ccccc3)CC2)o1` [Example 138, N-((2R,3S)-2,5-dimethyl-4-oxo-2,3,4,5-tetrahydropyrido[3,2-b][1,4]oxazepin-3-yl)-5-(1-phenylcyclopropyl)-1,3,4-oxadiazole-2-carboxamide]: the IC50 (in assay [1] (TNFα 10 ng/mL); at GST-hRIPK1 (8-327)) was 0.1 to 1000 nM in each case.
